Patent US20200095241A1, “SUBSTITUTED 1,2,4-THIADIAZOLYLPYRROLONES AND 1,2,4-THIADIAZOLYLHYDANTOINS AND SALTS THEREOF AND USE THEREOF AS HERBICIDES” (Bayer CropScience Aktiengesellschaft, priority 2016, published 2020)

Columns and labels:
Abutilon theophrasti [1] = experiment: Post-emergence herbicidal action; type: in vivo; settings: about 3 weeks after treatment
Experimental: (§1) Seeds of monocotyledonous and dicotyledonous weeds and crop plants were placed in sandy loam in plastic or wood-fiber pots, covered with soil and cultivated in a greenhouse under controlled growth conditions. 2 to 3 weeks after sowing, the test plants were treated at the one-leaf stage. The compounds of the invention, formulated in the form of wettable powders (WP) or as emulsion concentrates (EC), were then sprayed onto the green parts of the plants as aqueous suspension or emulsion with addition of 0.5% additive at a water application rate of 600 l/ha (converted). After the test plants had been kept in the greenhouse under optimum growth conditions for about 3 weeks, the activity of the preparations was rated visually in comparison to untreated controls. For example, 100% activity=the plants have died, 0% activity=like control plants. Tables A1 to A12 below show the effects of selected compounds of the general formula (I) according to Tables I.1 to I.44 on various harmful plants and an application rate corresponding to 1280 g/ha or 320 g/ha, which were obtained by the experimental procedure mentioned above.

Hordeum murinum = experiment: Post-emergence herbicidal action; type: in vivo; settings: 1280 g/ha, about 3 weeks after treatment
Experimental: as §1

Pharbitis purpurea = experiment: Post-emergence herbicidal action; type: in vivo; settings: about 3 weeks after treatment
Experimental: as §1

Setaria viridis [2] = experiment: Post-emergence herbicidal action; type: in vivo; settings: Setaria viridis, 504 h, about 3 weeks after treatment, read-out: Setaria viridis, herbicidal activity rated visually
Experimental: as §1

Stellaria media [3] = experiment: Post-emergence herbicidal action; type: in vivo; settings: about 3 weeks after treatment
Experimental: as §1

Viola tricolor [4] = experiment: Post-emergence herbicidal action; type: in vivo; settings: 504 h, about 3 weeks after treatment, read-out: Viola tricolor, herbicidal activity rated visually
Experimental: as §1

Abutilon theophrasti [5] = experiment: Pre-emergence herbicidal action; type: in vivo; settings: 1280 g/ha, after about 3 weeks
Excerpt: (§2) Seeds of monocotyledonous and dicotyledonous weed plants and crop plants were placed in plastic or organic planting pots and covered with soil. The compounds of the invention, formulated in the form of wettable powders (WP) or as emulsion concentrates (EC), were then applied onto the surface of the covering soil as aqueous suspension or emulsion with addition of 0.5% additive at a water application rate of 600 l/ha (converted). After the treatment, the pots were placed in a greenhouse and kept under good growth conditions for the test plants. After about 3 weeks, the effect of the preparations was scored visually in comparison with untreated controls as percentages. For example, 100% activity=the plants have died, 0% activity=like control plants. Tables B1 to B15 below show the effects of selected compounds of the general formula (I) according to Tables I.1 to I.44 on various harmful plants and an application rate corresponding to 1280 g/ha or 320 g/ha, which were obtained by the experimental procedure mentioned above.

Alopecurus myosuroides = experiment: Pre-emergence herbicidal action; type: in vivo; settings: 1280 g/ha, after about 3 weeks
Excerpt: as §2

Matricaria inodora [6] = experiment: Pre-emergence herbicidal action; type: in vivo; settings: after about 3 weeks
Excerpt: as §2

Polygonum convolvulus [7] = experiment: Pre-emergence herbicidal action; type: in vivo; settings: 1280 g/ha, after about 3 weeks
Excerpt: as §2

Setaria viridis [8] = experiment: Pre-emergence herbicidal action; type: in vivo; settings: 1280 g/ha, after about 3 weeks; for pest or weed control at 1280 g/ha: Setaria viridis, 504 h, read-out: Setaria viridis, herbicidal effect scored visually
Excerpt: as §2

Stellaria media [9] = experiment: Pre-emergence herbicidal action; type: in vivo; settings: after about 3 weeks
Excerpt: as §2

Viola tricolor [10] = experiment: Pre-emergence herbicidal action; type: in vivo; settings: Viola tricolor, 504 h, after about 3 weeks, read-out: Viola tricolor, herbicidal effect scored visually
Excerpt: as §2

photosystem II (PS II) = target: T1, photosystem II (PS II) (Spinacia oleracea, UniProt P69560); experiment: Measurement of the PS II activity in thylakoid membranes (DCPIP reduction); type: biochemical; settings: 100 μM test compound, spinach thylakoid membranes, DCPIP 120 μM, 10 min at 22° C. with exposure to light; for inhibition at 100 µM (stock): read-out: Effect (inhibition of PS II activity)
T1 construct: the chloroplasts were osmotically ruptured and the thylakoid membranes were then obtained by centrifugation; from tissue; host or cells: fresh spinach leaves; thylakoid membranes isolated from chloroplasts
Experimental: Cooled fresh spinach leaves were comminuted and homogenized in 50 mM phosphate buffer, pH 6.8. 10 mM KCl, 0.34 M sucrose (sucrose buffer) (blender, 1 g of plant material/ml). The homogenate was subsequently filtered through 4 layers of Miracloth and the chloroplasts were isolated by centrifugation, i.e. 10 min of centrifugation at 4400×g (4° C.). The sediment was suspended in 25 ml of sucrose buffer and re-centrifuged for 10 min at 4400×g (4° C.). The sediment was then suspended in 40 ml of 50 mM phosphate buffer, pH 6.8, 10 mM KCl, without sucrose. In this step, the chloroplasts were osmotically ruptured and the thylakoid membranes were then obtained by centrifugation (10 min, 4400×g, 4° C.). The membrane sediment was finally suspended in 20 ml of 50 mM phosphate buffer, pH 6.8, 10 mM KCl. Following protein determination and activity determination, the membrane suspension was divided into aliquots and frozen in liquid nitrogen. The aliquots were stored at −80° C. Under these conditions, the photosystem II preparation was storage stable for at least three months. The activity determination of photosystem II (PS II) was then carried out using the following test principle:
The electron transfer from PS II to an artificial electron acceptor, 2,6-dichlorophenolindophenol (DCPIP), was measured with exposure to light. The concentration of the blue oxidized form of DCPIP was determined spectrophotometrically at wavelength λ=595 nm. […] The activity determination was carried out in microtiter plates (96 cavities) in a reaction volume of 200 μl. Here, 155 μl of dilute membrane suspension were initially charged in 50 mM of phosphate buffer, pH 6.8, 10 mM KCl. Depending on the activity of the PS II preparation, the dilution was adjusted such that the measurement of the decrease in absorption (λ=595 nm) was linear for at least 10 min. In each case 5 μl solution of the test compounds of a concentration of 100 μM in DMSO were added to the enzyme suspension; controls contained 5 μl DMSO; the final concentration of DMSO in the reaction batch was thus 2.5% (v/v); this concentration had no adverse effect on the enzymatic activity. On each microtiter plate, a known PS II inhibitor, for example metribuzin, was used as standard, which allowed the quality of the PS II test to be assessed. The reaction was started by addition of 40 μl DCPIP solution (600 μM in distilled water); the final concentration of DCPIP was 120 μM. Measurement of absorption was carried out over a period of 10 min at 22° C. and with exposure to light. Using metribuzin as comparative substance, the results for the efficacy of the compounds of the general formula (I) at 100 μM are stated in the table below using the following classification: ++++ (inhibition≥90%), +++ ([…]≥70%), ++ (70%>inhibition≥50%), + (50%>inhibition≥30%).

Amaranthus retroflexus [11] = experiment: Pre-emergence herbicidal action; type: in vivo; settings: 1280 g/ha, after about 3 weeks
Excerpt: as §2

Lolium rigidum = experiment: Pre-emergence herbicidal action; type: in vivo; settings: 1280 g/ha, after about 3 weeks
Excerpt: as §2

Poa annua = experiment: Pre-emergence herbicidal action; type: in vivo; settings: 1280 g/ha, after about 3 weeks
Excerpt: as §2

Polygonum convolvulus [12] = experiment: Post-emergence herbicidal action; type: in vivo; settings: about 3 weeks after treatment
Experimental: as §1

Amaranthus retroflexus [13] = experiment: Post-emergence herbicidal action; type: in vivo; settings: 1280 g/ha, about 3 weeks after treatment
Experimental: as §1

Veronica persica = experiment: Post-emergence herbicidal action; type: in vivo; settings: 1280 g/ha, about 3 weeks after treatment
Experimental: as §1

Echinochloa crus-galli [14] = experiment: Post-emergence herbicidal action; type: in vivo; settings: 1280 g/ha, about 3 weeks after treatment
Experimental: as §1

Matricaria inodora [15] = experiment: Post-emergence herbicidal action; type: in vivo; settings: 1280 g/ha, about 3 weeks after treatment
Experimental: as §1

Echinochloa crus-galli [16] = experiment: Pre-emergence herbicidal action; type: in vivo; settings: 1280 g/ha, after about 3 weeks
Excerpt: as §2

[17] = Abutilon theophrasti, 504 h, read-out: Abutilon theophrasti, herbicidal activity rated visually
[18] = Stellaria media, 504 h, 1280 g/ha, read-out: Stellaria media, herbicidal activity rated visually
[19] = Tripleurospermum inodorum, 504 h, 1280 g/ha, read-out: Matricaria inodora, herbicidal effect scored visually
[20] = Stellaria media, 504 h, read-out: Stellaria media, herbicidal effect scored visually

SMILES	pest or weed control at 1280 g/ha (Abutilon theophrasti [1]; [17]) [%]	Pharbitis purpurea, herbicidal activity rated visually (Pharbitis purpurea; 1280 g/ha) [%]	pest or weed control at 1280 g/ha (Setaria viridis [2]) [%]	pest or weed control at 1280 g/ha (Stellaria media [3]; [18]) [%]	pest or weed control at 1280 g/ha (Viola tricolor [4]) [%]	Abutilon theophrasti, herbicidal effect scored visually (Abutilon theophrasti [5]) [%]	pest or weed control at 1280 g/ha (Matricaria inodora [6]; [19]) [%]	Polygonum convolvulus, herbicidal effect scored visually (Polygonum convolvulus [7]) [%]	pest or weed control at 1280 g/ha (Setaria viridis [8]) [%]	pest or weed control at 1280 g/ha (Stellaria media [9]; [20]) [%]	pest or weed control at 1280 g/ha (Viola tricolor [10]) [%]	inhibition at 100 µM (stock) (photosystem II (PS II)) [%]	Amaranthus retroflexus, herbicidal effect scored visually (Amaranthus retroflexus [11]) [%]	Lolium rigidum, herbicidal effect scored visually (Lolium rigidum) [%]	Poa annua, herbicidal effect scored visually (Poa annua) [%]	Amaranthus retroflexus, herbicidal activity rated visually (Amaranthus retroflexus [13]) [%]	also measured
CCCc1nsc(N2C(=O)C(C)=C(C)C2O)n1 (centres unmarked) [I.2-4, 3,4-Dimethyl-5-hydroxy-1-[3-(n-propyl)-1,2,4-thiadiazol-5-yl)-1,5-dihydro-2H-pyrrol-2-one]	90	90	100	80	80	80	100	100	100	100	100	> 90	–	–	–	–	Hordeum murinum, herbicidal activity rated visually (Hordeum murinum): 80%; Alopecurus myosuroides, herbicidal effect scored visually (Alopecurus myosuroides): 90%
CC1=C(C)C(O)N(c2nc(SCCOC(F)(F)F)ns2)C1=O (centres unmarked) [I.2-338]	–	–	–	–	–	–	–	–	–	–	–	–	90	90	90	–	Abutilon theophrasti, herbicidal activity rated visually (Abutilon theophrasti [1]; 320 g/ha): 100%; Stellaria media, herbicidal activity rated visually (Stellaria media [3]; 1280 g/ha): 90%; Matricaria inodora, herbicidal effect scored visually (Matricaria inodora [6]; 1280 g/ha): 90%; Setaria viridis, herbicidal effect scored visually (Setaria viridis [8]): 90%; Stellaria media, herbicidal effect scored visually (Stellaria media [9]; 320 g/ha): 90%; Effect (inhibition of PS II activity) (photosystem II (PS II)): ++++ (inhibition≥90%)
COc1nsc(N2C(=O)C(C)=C(C)C2O)n1 (centres unmarked) [I.2-363, 3,4-Dimethyl-5-hydroxy-1-(3-methoxy-1,2,4-thiadiazol-5-yl)-1,5-dihydro-2H-pyrrol-2-one]	–	–	–	–	–	–	–	–	–	–	–	> 90	–	–	–	–	pest or weed control at 320 g/ha (Abutilon theophrasti [1]; Abutilon theophrasti, 504 h, 320 g/ha, read-out: Abutilon theophrasti, herbicidal activity rated visually): 90%; Pharbitis purpurea, herbicidal activity rated visually (Pharbitis purpurea; 320 g/ha): 80%; Polygonum convolvulus, herbicidal activity rated visually (Polygonum convolvulus [12]; 320 g/ha): 100%; pest or weed control at 320 g/ha (Setaria viridis [2]; 320 g/ha): 100%; pest or weed control at 320 g/ha (Stellaria media [3]; Stellaria media, 504 h, 320 g/ha, read-out: Stellaria media, herbicidal activity rated visually): 90%; pest or weed control at 320 g/ha (Viola tricolor [4]; 320 g/ha): 100%; pest or weed control at 320 g/ha (Matricaria inodora [6]; Tripleurospermum inodorum, 504 h, 320 g/ha, read-out: Matricaria inodora, herbicidal effect scored visually): 90%; pest or weed control at 320 g/ha (Stellaria media [9]; Stellaria media, 504 h, 320 g/ha, read-out: Stellaria media, herbicidal effect scored visually): 100%; pest or weed control at 320 g/ha (Viola tricolor [10]; 320 g/ha): 80%
CC(C)c1nsc(N2C(=O)N(C)CC2O)n1 (centres unmarked) [I.13-5, 4-Hydroxy-1-methyl-3-[3-(isopropyl)-1,2,4-thiadiazol-5-yl]imidazolidin-2-one]	100	90	100	100	100	–	90	90	80	90	90	70 to 90	100	–	–	100	Polygonum convolvulus, herbicidal activity rated visually (Polygonum convolvulus [12]; 1280 g/ha): 90%; Veronica persica, herbicidal activity rated visually (Veronica persica): 100%
COC(=O)OC1C(C)=C(C)C(=O)N1c1nc(C2CC2)ns1 (centres unmarked) [I.17-11, 3,4-Dimethyl-5-methoxycarbonyloxy-1-[3-(cyclopropyl)-1,2,4-thiadiazol-5-yl]-1,5-dihydro-2H-pyrrol-2-one]	100	–	100	100	–	100	100	–	100	100	–	–	100	90	100	100	Echinochloa crus-galli, herbicidal activity rated visually (Echinochloa crus-galli [14]): 100%; Matricaria inodora, herbicidal activity rated visually (Matricaria inodora [15]): 100%; Echinochloa crus-galli, herbicidal effect scored visually (Echinochloa crus-galli [16]): 100%
